Target: T1, purified recombinant human caspase-3 (Homo sapiens, UniProt P42574)
T1 construct: Active site shared between large and small caspase subunit
T1 sequence (P42574 29-175 limits assumed): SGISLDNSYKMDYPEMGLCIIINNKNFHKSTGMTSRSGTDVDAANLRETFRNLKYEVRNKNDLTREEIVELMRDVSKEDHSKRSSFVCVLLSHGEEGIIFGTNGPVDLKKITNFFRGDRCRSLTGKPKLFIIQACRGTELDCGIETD
T1 sequence (P42574 176-277 limits assumed): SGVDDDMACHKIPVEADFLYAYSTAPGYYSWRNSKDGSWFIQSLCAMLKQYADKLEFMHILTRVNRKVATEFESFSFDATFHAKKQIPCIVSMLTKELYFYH
Assay: Direct [125I]-M808 labeling of purified recombinant human caspase-3
Type: binding
Settings: FIG. 2A lane 1
Procedure: The determination of caspase activity by [^125I]-M808 labeling was performed by pre-incubating purified recombinant human caspase-3 with indicated amounts of caspase inhibitor (M791) or vehicle (DMSO), for 1 hour at 25° C. in ICE buffer III (50 mM Hepes-KOH pH 7.0, 0.1% CHAPS, 10% sucrose, 2 mM EDTA), supplemented with 5 mM DTT. [^125I]-M808 was added to a final concentration of 1.25 μM and incubated for 5 min at 25° C. Active caspases in tissue or cell extracts were labeled by incubating 60-80 μg of lysate with [^125I]-M808 for 15 minutes at 25° C. Labeling was stopped by addition of Laemli buffer (2% SDS; 0.35 M O-mercaptoethanol; 50 mM Tris-Cl pH 6.8; 10% glycerol; 0.05% bromophenol blue) and by heating at 95° C. for 5 minutes. Caspase labeling in whole cells was performed as following. NT2 cells were plated in 24-well dishes (50 000 cells/well) in DMEM+10% FBS. The next day, media was replaced by media containing camptothecin (5 μg/ml) and the indicated amounts of caspase inhibitors. The culture media was removed after 5 hours of incubation and replaced by 100 μl of fresh media containing 12.5 nM [^125]-M808. After a 1 h incubation at 37° C., the media was removed, the cells were washed once with PBS and lysed in lysis buffer+25 μM M808. Cellular debris was removed by centrifugation at 13000 rpm for 10 min and boiled at 95° C. in Laemli buffer. […]

## COc1ccc(I)cc1CC(=O)N[C@H](C(=O)NC(CC(=O)O)C(=O)CF)C(C)C (stereo partly drawn) [[^125I]-M808, 5-fluoro-3-({N-[(5-iodo-2-methoxyphenyl)acetyl]-L-valyl}amino)-4-oxopentanoic acid]
  labeling of p17 subunit of caspase-3: covalently bound

Reference: US20060069038A1, “Irreversible caspase-3 inhibitors as active site probes” (priority 2003, published 2006)
